Test results: BigSolDB 2.1

C[C@H]1O[C@@H](n2cc(F)c(=O)[nH]c2=O)[C@H](O)[C@@H]1O
solubility (mole fraction)
Conditions | in 2-ethylhexanol | in methanol
278.15 K | 1.43e-05 | 0.00296
283.15 K | 2.23e-05 | 0.00334
288.15 K | 3.13e-05 | 0.00414
293.15 K | 4.66e-05 | 0.00466
298.15 K | 6.85e-05 | 0.00561
303.15 K | 9.63e-05 | 0.00653
308.15 K | 0.000139 | 0.00757
313.15 K | 0.000182 | 0.00849
318.15 K | 0.000252 | 0.0101
323.15 K | 0.000373 | 0.0113
328.15 K | 0.000496 | 0.0133
